# In patent publication US8278345B2, “Inhibitors of glutaminyl cyclase” (Probiodrug AG, priority 2006, dated 2012):
# Target: hQC (Homo sapiens, UniProt Q16769)
# Assay: Inhibitor assay for glutaminyl cyclase activity (fluorometric, H-Gln-βNA / H-Gln-AMC)
# Assay type: biochemical
# Conditions: compound from preparative synthesis, purified; read-out: IC50 hQC
# Method in brief: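 Coupled fluorometric assay at 30 °C with pyroglutamyl aminopeptidase, in Tris/HCl pH 8.0 with EDTA, substrate H-Gln-βNA (0.2 mM; ex/em 320/410 nm) or H-Gln-AMC (ex/em 380/460 nm), initiated by QC. Screening: 4 mM inhibitor, substrate at 1 KM; Ki from progress curves fitted to competitive inhibition.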
# hQC, sequence (Q16769 29-361): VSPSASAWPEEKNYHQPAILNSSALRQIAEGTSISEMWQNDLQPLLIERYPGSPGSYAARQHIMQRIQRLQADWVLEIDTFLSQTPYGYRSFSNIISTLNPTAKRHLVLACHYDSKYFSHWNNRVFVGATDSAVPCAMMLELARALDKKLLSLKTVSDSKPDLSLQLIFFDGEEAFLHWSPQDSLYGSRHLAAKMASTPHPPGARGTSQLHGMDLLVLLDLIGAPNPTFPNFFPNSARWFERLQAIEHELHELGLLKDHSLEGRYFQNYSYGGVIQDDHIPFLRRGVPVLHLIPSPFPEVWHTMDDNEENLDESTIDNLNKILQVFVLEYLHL
row,SMILES,IC50
1,"O=C1C(O)=C(c2ccc(O)cc2)C(c2ccc3[nH]ccc3c2)N1CCCn1ccnc1 (stereo not shown) [Compound 155, 3-Hydroxy-4-(4-hydroxy-phenyl)-1-(3-imidazol-1-yl-propyl)-5-(1H-indol-5-yl)-1,5-dihydro-pyrrol-2-one]",370 nM
2,"O=C1C(O)=C(c2c[nH]c3ccccc23)C(c2ccccc2)N1CCCn1ccnc1 (stereo not shown) [Compound 127, 3-Hydroxy-1-(3-imidazol-1-yl-propyl)-4-(1H-indol-3-yl)-5-phenyl-1,5-dihydro-pyrrol-2-one]",434 nM

# Same assay, conditions: read-out: IC50
row,SMILES,IC50
1,"CC(C)C1=C(O)C(=O)N(CCCn2ccnc2)C1C1CCC=CO1 (stereo not shown) [Compound 66, 5-(3,4-Dihydro-2H-pyran-2-yl)-3-hydroxy-1-(3-imidazol-1-yl-propyl)-4-isopropyl-1,5-dihydro-pyrrol-2-one]",2200 nM
2,"O=C1C(O)=C(c2c[nH]c3ccccc23)C(C(O)CO)N1CCCn1ccnc1 (stereo not shown) [Compound 117, 5-(1,2-Dihydroxy-ethyl)-3-hydroxy-1-(3-imidazol-1-yl-propyl)-4-(1H-indol-3-yl)-1,5-dihydro-pyrrol-2-one]",400 nM
3,"O=C(C1=C(O)C(=O)N(c2ccc3[nH]cnc3c2)C1c1c[nH]cn1)C1CCCCC1 (stereo not shown) [Compound 255, 1-(1H-Benzoimidazol-5-yl)-4-cyclohexanecarbonyl-3-hydroxy-5-(1H-imidazol-4-yl)-1,5-dihydro-pyrrol-2-one]",2470 nM
4,"CC(=O)C1=C(O)C(=O)N(c2ccc3[nH]cnc3c2)C1c1ccc(C)o1 (stereo not shown) [Compound 415, 4-Acetyl-1-(1H-benzoimidazol-5-yl)-3-hydroxy-5-(5-methyl-furan-2-yl)-1,5-dihydro-pyrrol-2-one]",1390 nM
5,"CCC1=C(O)C(=O)N(CCCn2ccnc2)C1c1cc[nH]n1 (stereo not shown) [Compound 224, 4-Ethyl-3-hydroxy-1-(3-imidazol-1-yl-propyl)-5-(1H-pyrazol-3-yl)-1,5-dihydro-pyrrol-2-one]",1300 nM
6,"O=C1C(O)=C(c2c[nH]c3ccccc23)C(c2cccc(O)c2)N1CCCn1ccnc1 (stereo not shown) [Compound 146, 3-Hydroxy-5-(3-hydroxy-phenyl)-1-(3-imidazol-1-yl-propyl)-4-(1H-indol-3-yl)-1,5-dihydro-pyrrol-2-one]",400 nM
7,"O=C(C1=C(O)C(=O)N(c2ccc3[nH]cnc3c2)C1c1ccc[nH]1)C1CCCCC1 (stereo not shown) [Compound 452, 1-(1H-Benzoimidazol-5-yl)-3-cyclohexanecarbonyl-4-hydroxy-1,2-dihydro-1′H-[2,2′]bipyrrolyl-5-one]",5080 nM
8,"CCCCC1C(c2ccc(O)cc2)=C(O)C(=O)N1CCCn1ccnc1 (stereo not shown) [Compound 177, 5-Butyl-3-hydroxy-4-(4-hydroxy-phenyl)-1-(3-imidazol-1-yl-propyl)-1,5-dihydro-pyrrol-2-one]",40 nM
9,"CCC1=C(O)C(=O)N(CCCn2ccnc2)C1/C=C/C(C)C (stereo not shown) [Compound 226, 4-Ethyl-3-hydroxy-1-(3-imidazol-1-yl-propyl)-5-(3-methyl-but-1-enyl)-1,5-dihydro-pyrrol-2-one]",3100 nM
10,"O=C1C(O)=C(c2ccc(O)cc2)C(c2ccc3[nH]ccc3c2)N1CCCn1ccnc1 (stereo not shown) [Compound 155, 3-Hydroxy-4-(4-hydroxy-phenyl)-1-(3-imidazol-1-yl-propyl)-5-(1H-indol-5-yl)-1,5-dihydro-pyrrol-2-one]",40 nM
11,"CC(C)C1=C(O)C(=O)N(c2ccc3[nH]cnc3c2)C1c1csc2ccccc12 (stereo not shown) [Compound 275, 5-Benzo[b]thiophen-3-yl-1-(1H-benzoimidazol-5-yl)-3-hydroxy-4-isopropyl-1,5-dihydro-pyrrol-2-one]",6070 nM
12,"CC(C)/C=C/C1C(c2ccc(O)cc2)=C(O)C(=O)N1CCCn1ccnc1 (stereo not shown) [Compound 153, 3-Hydroxy-4-(4-hydroxy-phenyl)-1-(3-imidazol-1-yl-propyl)-5-(3-methyl-but-1-enyl)-1,5-dihydro-pyrrol-2-one]",2200 nM
13,"O=C(C1=C(O)C(=O)N(c2ccc3[nH]cnc3c2)C1c1ccc(Cl)c(C(F)(F)F)c1)c1cc2ccccc2s1 (stereo not shown) [Compound 257, 4-(Benzo[b]thiophene-2-carbonyl)-1-(1H-benzoimidazol-5-yl)-5-(4-chloro-3-trifluoromethyl-phenyl)-3-hydroxy-1,5-dihydro-pyrrol-2-one]",3370 nM
14,"Cc1cccc(C2C(C(=O)C3CCCCC3)=C(O)C(=O)N2c2ccc3[nH]cnc3c2)n1 (stereo not shown) [Compound 381, 1-(1H-Benzoimidazol-5-yl)-4-cyclohexanecarbonyl-3-hydroxy-5-(6-methyl-pyridin-2-yl)-1,5-dihydro-pyrrol-2-one]",1750 nM
15,"CC(C)CC(=O)C1=C(O)C(=O)N(c2ccc3[nH]cnc3c2)C1c1ccc(-c2ccccn2)cc1 (stereo not shown) [Compound 455, 1-(1H-Benzoimidazol-5-yl)-3-hydroxy-4-(3-methyl-butyryl)-5-(4-pyridin-2-yl-phenyl)-1,5-dihydro-pyrrol-2-one]",130 nM
16,"O=C(O)CC1=C(O)C(=O)N(c2ccc3[nH]cnc3c2)C1c1cccc(F)c1 (stereo not shown) [Compound 311, [1-(1H-Benzoimidazol-5-yl)-2-(3-fluoro-phenyl)-4-hydroxy-5-oxo-2,5-dihydro-1H-pyrrol-3-yl]-acetic acid]",4540 nM
17,"Cn1cc(C2C(CC(=O)O)=C(O)C(=O)N2c2ccc3[nH]cnc3c2)c2ccccc21 (stereo not shown) [Compound 322, [1-(1H-Benzoimidazol-5-yl)-4-hydroxy-2-(1-methyl-1H-indol-3-yl)-5-oxo-2,5-dihydro-1H-pyrrol-3-yl]-acetic acid]",5800 nM
18,"CCC1=C(O)C(=O)N(CCCn2ccnc2)C1c1ccc2[nH]ccc2c1 (stereo not shown) [Compound 228, 4-Ethyl-3-hydroxy-1-(3-imidazol-1-yl-propyl)-5-(1H-indol-5-yl)-1,5-dihydro-pyrrol-2-one]",40 nM
19,"CC(C)C1=C(O)C(=O)N(CCCn2ccnc2)C1c1ccc(CO)o1 (stereo not shown) [Compound 63, 3-Hydroxy-5-(5-hydroxymethyl-furan-2-yl)-1-(3-imidazol-1-yl-propyl)-4-isopropyl-1,5-dihydro-pyrrol-2-one]",3100 nM
20,"CCCCCC1=C(O)C(=O)N(CCCn2ccnc2)C1/C=C/C(C)C (stereo not shown) [Compound 190, 3-Hydroxy-1-(3-imidazol-1-yl-propyl)-5-(3-methyl-but-1-enyl)-4-pentyl-1,5-dihydro-pyrrol-2-one]",400 nM
21,"CCC1=C(O)C(=O)N(CCCn2ccnc2)C1C1CCC=CO1 (stereo not shown) [Compound 237, 5-(3,4-Dihydro-2H-pyran-2-yl)-4-ethyl-3-hydroxy-1-(3-imidazol-1-yl-propyl)-1,5-dihydro-pyrrol-2-one]",400 nM
22,"CCCCCC(=O)C1=C(O)C(=O)N(c2ccc3[nH]cnc3c2)C1C1CCOC1 (stereo not shown) [Compound 274, 1-(1H-Benzoimidazol-5-yl)-4-hexanoyl-3-hydroxy-5-(tetrahydro-furan-3-yl)-1,5-dihydro-pyrrol-2-one]",2470 nM
23,"O=C1C(O)=C(c2ccccc2)C(c2cc(Cl)cc(Cl)c2O)N1CCCn1ccnc1 (stereo not shown) [Compound 76, 5-(3,5-Dichloro-2-hydroxy-phenyl)-3-hydroxy-1-(3-imidazol-1-yl-propyl)-4-phenyl-1,5-dihydro-pyrrol-2-one]",40 nM
24,"CC1=C(O)C(=O)N(CCCn2ccnc2)C1c1ccccc1F (stereo not shown) [Compound 51, 5-(2-Fluoro-phenyl)-3-hydroxy-1-(3-imidazol-1-yl-propyl)-4-methyl-1,5-dihydro-pyrrol-2-one]",1300 nM
25,"O=C1C(O)=C(c2c[nH]c3ccccc23)C(c2ccccc2)N1CCCn1ccnc1 (stereo not shown) [Compound 127, 3-Hydroxy-1-(3-imidazol-1-yl-propyl)-4-(1H-indol-3-yl)-5-phenyl-1,5-dihydro-pyrrol-2-one]",40 nM
26,"CC1=C(O)C(=O)N(c2ccc3[nH]cnc3c2)C1c1ccc2nonc2c1 (stereo not shown) [Compound 351, 1-(1H-Benzoimidazol-5-yl)-5-(benzo[c][1,2,5]oxadiazol-5-yl)-3-hydroxy-4-methyl-1,5-dihydro-pyrrol-2-one]",1210 nM
